Laboratory results from the NIST ThermoML archive (doi:10.1016/j.jct.2012.06.020).
Numbers after ± are expanded uncertainties.

Test: mn = molality of the nth substance listed, in mol/kg
Conditions: 101 kPa, Liquid; for mass density: Vibrating tube method; for speed of sound: OPTIME 1.0 from OPTEL

O=S(=O)([O-])C(F)(F)F.O=S(=O)([O-])C(F)(F)F.O=S(=O)([O-])C(F)(F)F.[Gd+3] [gadolinium (III) trifluoromethanesulfonate] + C[S+](C)[O-]
Conditions	mass density, 293.15 K [kg/m3]	mass density, 298.15 K [kg/m3]	mass density, 303.15 K [kg/m3]	mass density, 313.15 K [kg/m3]	mass density, 323.15 K [kg/m3]	mass density, 333.15 K [kg/m3]	speed of sound, 298.15 K [m/s]
m1 = 0.01963	1108.73 ± 1.2	1103.71 ± 1.1	1098.7 ± 1.1	1088.67 ± 1.1	1078.66 ± 1.1	1068.64 ± 1.1	1481.8 ± 2
m1 = 0.02663	1111.79 ± 1.2	1106.78 ± 1.1	1101.77 ± 1.1	1091.75 ± 1.1	1081.75 ± 1.1	1071.74 ± 1.1	1481 ± 2
m1 = 0.03818	1116.88 ± 1.2	1111.88 ± 1.2	1106.87 ± 1.1	1096.87 ± 1.1	1086.88 ± 1.1	1076.89 ± 1.1	1479.6 ± 2
m1 = 0.04655	1120.6 ± 1.2	1115.6 ± 1.2	1110.6 ± 1.2	1100.61 ± 1.1	1090.63 ± 1.1	1080.64 ± 1.1	1478.6 ± 2
m1 = 0.05549	1124.6 ± 1.2	1119.6 ± 1.2	1114.6 ± 1.2	1104.62 ± 1.1	1094.65 ± 1.1	1084.68 ± 1.1	1477.5 ± 2
m1 = 0.06913	1130.74 ± 1.2	1125.75 ± 1.2	1120.76 ± 1.2	1110.8 ± 1.2	1100.84 ± 1.1	1090.89 ± 1.1	1475.9 ± 2
m1 = 0.08877	1139.72 ± 1.2	1134.74 ± 1.2	1129.76 ± 1.2	1119.82 ± 1.2	1109.89 ± 1.2	1099.96 ± 1.1	1473.6 ± 2
m1 = 0.1071	1148.2 ± 1.2	1143.23 ± 1.2	1138.26 ± 1.2	1128.34 ± 1.2	1118.43 ± 1.2	1108.52 ± 1.2	1471.5 ± 2
m1 = 0.124	1156.16 ± 1.3	1151.2 ± 1.3	1146.24 ± 1.2	1136.34 ± 1.2	1126.45 ± 1.2	1116.58 ± 1.2	1469.4 ± 2
m1 = 0.1457	1166.53 ± 1.3	1161.57 ± 1.3	1156.62 ± 1.3	1146.75 ± 1.2	1136.88 ± 1.2	1127.04 ± 1.2	1467 ± 2
m1 = 0.1629	1174.88 ± 1.3	1169.93 ± 1.3	1165 ± 1.3	1155.14 ± 1.3	1145.31 ± 1.2	1135.48 ± 1.2	1465 ± 2

O=S(=O)([O-])C(F)(F)F.O=S(=O)([O-])C(F)(F)F.O=S(=O)([O-])C(F)(F)F.[La+3] [lanthanum(III) trifluoromethanesulfonate] + C[S+](C)[O-]
Conditions	mass density, 293.15 K [kg/m3]	mass density, 298.15 K [kg/m3]	mass density, 303.15 K [kg/m3]	mass density, 313.15 K [kg/m3]	mass density, 323.15 K [kg/m3]	mass density, 333.15 K [kg/m3]	speed of sound, 298.15 K [m/s]
m1 = 0.01831	1107.63 ± 1.1	1102.61 ± 1.1	1097.59 ± 1.1	1087.57 ± 1.1	1077.55 ± 1.1	1067.52 ± 1.1	1482.3 ± 2
m1 = 0.0248	1110.28 ± 1.1	1105.26 ± 1.1	1100.24 ± 1.1	1090.22 ± 1.1	1080.21 ± 1.1	1070.19 ± 1.1	1481.7 ± 2
m1 = 0.03536	1114.62 ± 1.2	1109.6 ± 1.1	1104.59 ± 1.1	1094.58 ± 1.1	1084.58 ± 1.1	1074.57 ± 1.1	1480.7 ± 2
m1 = 0.04296	1117.75 ± 1.2	1112.74 ± 1.2	1107.73 ± 1.1	1097.73 ± 1.1	1087.73 ± 1.1	1077.74 ± 1.1	1479.9 ± 2
m1 = 0.05181	1121.43 ± 1.2	1116.42 ± 1.2	1111.41 ± 1.1	1101.41 ± 1.1	1091.43 ± 1.1	1081.44 ± 1.1	1479 ± 2
m1 = 0.0646	1126.78 ± 1.2	1121.77 ± 1.2	1116.77 ± 1.2	1106.78 ± 1.1	1096.81 ± 1.1	1086.84 ± 1.1	1477.8 ± 2
m1 = 0.08309	1134.62 ± 1.2	1129.61 ± 1.2	1124.62 ± 1.2	1114.64 ± 1.2	1104.68 ± 1.1	1094.74 ± 1.1	1476 ± 2
m1 = 0.1003	1142 ± 1.2	1136.99 ± 1.2	1132 ± 1.2	1122.04 ± 1.2	1112.1 ± 1.2	1102.16 ± 1.1	1474.3 ± 2
m1 = 0.1156	1148.66 ± 1.2	1143.66 ± 1.2	1138.68 ± 1.2	1128.72 ± 1.2	1118.8 ± 1.2	1108.9 ± 1.2	1472.9 ± 2
m1 = 0.1362	1157.7 ± 1.3	1152.71 ± 1.2	1147.73 ± 1.2	1137.79 ± 1.2	1127.88 ± 1.2	1117.99 ± 1.2	1470.8 ± 2
m1 = 0.1528	1165.12 ± 1.3	1160.13 ± 1.3	1155.15 ± 1.3	1145.24 ± 1.2	1135.35 ± 1.2	1125.49 ± 1.2	1469.3 ± 2

O=S(=O)([O-])C(F)(F)F.O=S(=O)([O-])C(F)(F)F.O=S(=O)([O-])C(F)(F)F.[Lu+3] [lutetium(III) trifluoromethanesulfonate] + C[S+](C)[O-]
Conditions	mass density, 293.15 K [kg/m3]	mass density, 298.15 K [kg/m3]	mass density, 303.15 K [kg/m3]	mass density, 313.15 K [kg/m3]	mass density, 323.15 K [kg/m3]	mass density, 333.15 K [kg/m3]	speed of sound, 298.15 K [m/s]
m1 = 0.01878	1108.65 ± 1.2	1103.62 ± 1.1	1098.6 ± 1.1	1088.57 ± 1.1	1078.53 ± 1.1	1068.49 ± 1.1	–
m1 = 0.02625	1112.04 ± 1.2	1107.02 ± 1.2	1101.99 ± 1.1	1091.95 ± 1.1	1081.91 ± 1.1	1071.88 ± 1.1	–
m1 = 0.03372	1115.44 ± 1.2	1110.42 ± 1.2	1105.39 ± 1.2	1095.36 ± 1.1	1085.32 ± 1.1	1075.28 ± 1.1	–
m1 = 0.03373	–	–	–	–	–	–	1479.8 ± 2
m1 = 0.04075	1118.67 ± 1.2	1113.64 ± 1.2	1108.62 ± 1.2	1098.58 ± 1.1	1088.54 ± 1.1	1078.51 ± 1.1	1478.9 ± 2
m1 = 0.05063	1123.23 ± 1.2	1118.2 ± 1.2	1113.17 ± 1.2	1103.14 ± 1.2	1093.11 ± 1.1	1083.07 ± 1.1	1477.6 ± 2
m1 = 0.06739	1131.05 ± 1.2	1126.03 ± 1.2	1121 ± 1.2	1110.97 ± 1.2	1100.94 ± 1.1	1090.91 ± 1.1	1475.5 ± 2
m1 = 0.0825	1138.19 ± 1.2	1133.17 ± 1.2	1128.14 ± 1.2	1118.09 ± 1.2	1108.05 ± 1.2	1098.05 ± 1.1	1473.6 ± 2
m1 = 0.09757	1145.41 ± 1.2	1140.38 ± 1.2	1135.36 ± 1.2	1125.31 ± 1.2	1115.27 ± 1.2	1105.25 ± 1.2	1471.7 ± 2
m1 = 0.1139	1153.31 ± 1.3	1148.28 ± 1.3	1143.26 ± 1.2	1133.2 ± 1.2	1123.17 ± 1.2	1113.14 ± 1.2	1469.6 ± 2
m1 = 0.1294	1160.93 ± 1.3	1155.9 ± 1.3	1150.87 ± 1.3	1140.81 ± 1.2	1130.77 ± 1.2	1120.74 ± 1.2	1467.6 ± 2
m1 = 0.145	1168.67 ± 1.3	1163.64 ± 1.3	1158.61 ± 1.3	1148.56 ± 1.3	1138.52 ± 1.2	1128.5 ± 1.2	1465.7 ± 2
m1 = 0.1599	1176.2 ± 1.3	1171.16 ± 1.3	1166.13 ± 1.3	1156.07 ± 1.3	1146.04 ± 1.3	1136.01 ± 1.2	1463.9 ± 2
